{
  "source": "paper PMC10046369",
  "about": "“Low-Affinity/High-Selectivity Dopamine Transport Inhibition Sufficient to Rescue Cognitive Functions in the Aging Rat” (Biomolecules, 2023)",
  "experiment_in_all_cases": "biochemical",
  "parameters_in_all_cases": "KINOMEscan competition binding panel, per cent of control",
  "settings_in_all_cases": "read-out: %Ctrl @ 2800nM",
  "key": {"EPHA4": {"biological_target": "EPHA4 (Homo sapiens, UniProt P54764)", "sequence (P54764 whole entry)": "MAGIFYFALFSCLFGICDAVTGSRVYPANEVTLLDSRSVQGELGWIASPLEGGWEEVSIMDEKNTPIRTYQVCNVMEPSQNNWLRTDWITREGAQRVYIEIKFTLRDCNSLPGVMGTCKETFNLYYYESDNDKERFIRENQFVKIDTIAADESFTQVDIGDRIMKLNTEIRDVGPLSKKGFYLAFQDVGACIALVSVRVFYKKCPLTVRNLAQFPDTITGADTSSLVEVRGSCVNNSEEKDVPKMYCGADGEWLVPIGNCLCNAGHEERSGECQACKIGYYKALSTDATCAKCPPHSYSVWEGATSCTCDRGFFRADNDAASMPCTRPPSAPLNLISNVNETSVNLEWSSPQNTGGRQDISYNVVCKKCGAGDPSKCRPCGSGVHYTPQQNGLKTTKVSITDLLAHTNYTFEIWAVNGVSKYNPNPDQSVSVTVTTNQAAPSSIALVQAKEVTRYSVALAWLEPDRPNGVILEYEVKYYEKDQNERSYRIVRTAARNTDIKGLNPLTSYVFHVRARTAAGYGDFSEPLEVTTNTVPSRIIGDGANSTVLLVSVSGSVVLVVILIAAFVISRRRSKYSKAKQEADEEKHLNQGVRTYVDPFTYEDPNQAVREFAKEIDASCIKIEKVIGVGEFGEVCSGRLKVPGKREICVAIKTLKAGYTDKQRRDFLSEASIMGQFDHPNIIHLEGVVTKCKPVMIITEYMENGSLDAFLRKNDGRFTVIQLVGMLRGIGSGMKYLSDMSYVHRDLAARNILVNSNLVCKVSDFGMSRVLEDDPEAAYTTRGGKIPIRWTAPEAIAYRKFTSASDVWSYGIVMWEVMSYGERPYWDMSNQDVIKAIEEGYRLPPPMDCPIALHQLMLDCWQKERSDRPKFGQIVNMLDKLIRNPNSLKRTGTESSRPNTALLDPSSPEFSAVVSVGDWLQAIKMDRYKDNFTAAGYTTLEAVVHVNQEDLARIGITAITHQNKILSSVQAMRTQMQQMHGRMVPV", "how_it_was_run": "(§1)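 Values are expressed as percent of control, calculated as ((test − positive control)/(negative control − positive control)) × 100, so lower numbers mean stronger hits. Binding was measured by KINOMEscan competition assay in a 450-kinase human panel including disease mutants, using the contractor's validated protocol.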"}, "AAK1": {"biological_target": "AAK1 (Homo sapiens, UniProt Q2M2I8)", "how_it_was_run": "as §1"}, "PCTK2": {"biological_target": "T1, PCTK2 (Homo sapiens, UniProt Q00537)", "T1 construct": "gene CDK17", "how_it_was_run": "as §1"}, "EPHA1": {"biological_target": "EPHA1 (Homo sapiens, UniProt P21709)", "sequence (P21709 whole entry)": "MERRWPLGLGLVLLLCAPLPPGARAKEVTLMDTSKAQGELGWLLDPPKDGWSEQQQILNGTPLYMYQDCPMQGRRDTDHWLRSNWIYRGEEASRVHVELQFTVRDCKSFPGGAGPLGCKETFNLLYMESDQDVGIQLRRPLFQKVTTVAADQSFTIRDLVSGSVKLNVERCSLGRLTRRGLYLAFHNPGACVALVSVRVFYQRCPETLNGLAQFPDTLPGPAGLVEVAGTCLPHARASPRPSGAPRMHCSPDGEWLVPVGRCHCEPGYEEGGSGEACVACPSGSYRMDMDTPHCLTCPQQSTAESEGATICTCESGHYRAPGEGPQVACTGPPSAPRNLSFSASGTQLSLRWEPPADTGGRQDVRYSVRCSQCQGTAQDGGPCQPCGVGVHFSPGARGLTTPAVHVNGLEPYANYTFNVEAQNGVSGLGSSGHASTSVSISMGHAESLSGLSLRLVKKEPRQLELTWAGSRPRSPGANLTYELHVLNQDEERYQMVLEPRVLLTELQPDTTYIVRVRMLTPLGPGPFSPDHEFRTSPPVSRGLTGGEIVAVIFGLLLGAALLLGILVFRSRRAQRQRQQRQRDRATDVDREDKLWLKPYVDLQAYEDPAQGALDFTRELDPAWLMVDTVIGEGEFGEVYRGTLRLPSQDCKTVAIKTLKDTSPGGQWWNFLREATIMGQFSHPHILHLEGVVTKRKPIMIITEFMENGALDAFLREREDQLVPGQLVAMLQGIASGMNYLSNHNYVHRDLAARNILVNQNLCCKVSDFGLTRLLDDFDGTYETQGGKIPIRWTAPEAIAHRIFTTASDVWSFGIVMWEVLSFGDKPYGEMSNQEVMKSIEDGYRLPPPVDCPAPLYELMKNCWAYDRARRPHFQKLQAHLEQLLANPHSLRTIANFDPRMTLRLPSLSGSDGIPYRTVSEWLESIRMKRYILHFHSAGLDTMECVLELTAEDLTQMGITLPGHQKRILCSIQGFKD", "how_it_was_run": "as §1"}, "ERK3": {"biological_target": "T2, ERK3 (Homo sapiens, UniProt Q16659)", "T2 construct": "gene MAPK6", "how_it_was_run": "as §1"}, "MEK6": {"biological_target": "T3, MEK6 (Homo sapiens, UniProt P52564)", "T3 construct": "gene MAP2K6", "how_it_was_run": "as §1"}, "DMPK2": {"biological_target": "T4, DMPK2 (Homo sapiens, UniProt Q6DT37)", "T4 construct": "gene CDC42BPG", "how_it_was_run": "as §1"}, "HIPK1": {"biological_target": "HIPK1 (Homo sapiens, UniProt Q86Z02)", "how_it_was_run": "as §1"}, "BMPR1B": {"biological_target": "BMPR1B (Homo sapiens, UniProt O00238)", "how_it_was_run": "as §1"}, "CDC2L1": {"biological_target": "T5, CDC2L1 (Homo sapiens, UniProt P21127)", "T5 construct": "gene CDK11B", "how_it_was_run": "as §1"}, "FES": {"biological_target": "FES (Homo sapiens, UniProt P07332)", "sequence (P07332 whole entry)": "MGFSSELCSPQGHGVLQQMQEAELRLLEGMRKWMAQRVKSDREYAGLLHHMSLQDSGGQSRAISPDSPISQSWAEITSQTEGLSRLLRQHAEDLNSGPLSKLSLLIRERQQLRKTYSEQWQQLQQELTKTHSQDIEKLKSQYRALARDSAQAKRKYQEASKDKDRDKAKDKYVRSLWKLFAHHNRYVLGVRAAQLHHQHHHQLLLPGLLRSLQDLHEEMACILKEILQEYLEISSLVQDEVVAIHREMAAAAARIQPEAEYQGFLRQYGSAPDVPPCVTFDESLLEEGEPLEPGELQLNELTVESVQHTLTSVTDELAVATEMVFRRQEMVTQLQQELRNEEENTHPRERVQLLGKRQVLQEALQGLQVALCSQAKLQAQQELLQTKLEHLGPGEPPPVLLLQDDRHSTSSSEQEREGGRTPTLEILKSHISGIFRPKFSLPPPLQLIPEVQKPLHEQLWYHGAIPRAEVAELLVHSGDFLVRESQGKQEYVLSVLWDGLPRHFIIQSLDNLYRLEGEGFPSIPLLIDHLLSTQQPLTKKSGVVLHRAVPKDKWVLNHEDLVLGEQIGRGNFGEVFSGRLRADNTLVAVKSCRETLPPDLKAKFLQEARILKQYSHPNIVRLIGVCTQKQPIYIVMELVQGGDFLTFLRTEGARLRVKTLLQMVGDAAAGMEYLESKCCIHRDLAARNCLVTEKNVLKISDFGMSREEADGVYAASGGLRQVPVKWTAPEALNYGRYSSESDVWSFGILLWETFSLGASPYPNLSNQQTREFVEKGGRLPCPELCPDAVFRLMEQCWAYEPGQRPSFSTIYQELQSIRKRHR", "how_it_was_run": "as §1"}, "AURKA": {"biological_target": "AURKA (Homo sapiens, UniProt O14965)", "sequence (O14965 whole entry)": "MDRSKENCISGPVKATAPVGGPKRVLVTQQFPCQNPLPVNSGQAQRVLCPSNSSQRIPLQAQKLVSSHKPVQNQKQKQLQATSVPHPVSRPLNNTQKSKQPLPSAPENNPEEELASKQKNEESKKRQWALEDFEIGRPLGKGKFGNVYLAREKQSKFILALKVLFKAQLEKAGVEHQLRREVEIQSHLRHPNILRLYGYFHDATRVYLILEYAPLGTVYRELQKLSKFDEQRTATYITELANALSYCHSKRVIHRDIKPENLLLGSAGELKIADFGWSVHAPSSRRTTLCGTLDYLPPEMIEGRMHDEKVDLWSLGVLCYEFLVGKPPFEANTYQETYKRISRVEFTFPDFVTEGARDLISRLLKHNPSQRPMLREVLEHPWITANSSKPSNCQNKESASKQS", "how_it_was_run": "as §1"}, "[1]": {"biological_target": "T6, ABL1(Q252H)-nonphosphorylated (Homo sapiens, UniProt P00519, Q252H)", "T6 construct": "nonphosphorylated", "how_it_was_run": "as §1"}, "[2]": {"biological_target": "T7, JAK1(JH2domain-pseudokinase) (Homo sapiens, UniProt P23458)", "T7 construct": "JH2domain-pseudokinase", "how_it_was_run": "as §1"}, "ROCK1": {"biological_target": "ROCK1 (Homo sapiens, UniProt Q13464)", "how_it_was_run": "as §1"}, "EPHA6": {"biological_target": "EPHA6 (Homo sapiens, UniProt Q9UF33)", "how_it_was_run": "as §1"}, "MAK": {"biological_target": "MAK (Homo sapiens, UniProt P20794)", "sequence (P20794 whole entry)": "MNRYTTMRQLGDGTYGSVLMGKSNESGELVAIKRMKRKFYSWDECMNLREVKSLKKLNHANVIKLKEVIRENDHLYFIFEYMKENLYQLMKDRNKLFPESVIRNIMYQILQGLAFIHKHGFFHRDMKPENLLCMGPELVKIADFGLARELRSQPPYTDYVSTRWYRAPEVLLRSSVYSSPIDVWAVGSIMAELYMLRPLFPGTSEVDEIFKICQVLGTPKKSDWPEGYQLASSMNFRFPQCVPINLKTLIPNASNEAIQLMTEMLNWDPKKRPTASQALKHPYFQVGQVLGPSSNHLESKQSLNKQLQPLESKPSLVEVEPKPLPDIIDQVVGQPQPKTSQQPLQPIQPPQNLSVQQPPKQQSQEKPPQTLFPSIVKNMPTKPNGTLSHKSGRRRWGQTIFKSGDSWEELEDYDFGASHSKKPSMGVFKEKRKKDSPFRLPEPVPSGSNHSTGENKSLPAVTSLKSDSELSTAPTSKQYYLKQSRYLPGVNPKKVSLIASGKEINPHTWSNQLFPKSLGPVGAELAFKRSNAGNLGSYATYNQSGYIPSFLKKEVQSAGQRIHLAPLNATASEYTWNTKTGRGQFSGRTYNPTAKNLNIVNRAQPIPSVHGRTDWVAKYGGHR", "how_it_was_run": "as §1"}, "CDK8": {"biological_target": "CDK8 (Homo sapiens, UniProt P49336)", "how_it_was_run": "as §1"}, "CASK": {"biological_target": "CASK (Homo sapiens, UniProt O14936)", "how_it_was_run": "as §1"}, "TAOK1": {"biological_target": "TAOK1 (Homo sapiens, UniProt Q7L7X3)", "sequence (Q7L7X3 whole entry)": "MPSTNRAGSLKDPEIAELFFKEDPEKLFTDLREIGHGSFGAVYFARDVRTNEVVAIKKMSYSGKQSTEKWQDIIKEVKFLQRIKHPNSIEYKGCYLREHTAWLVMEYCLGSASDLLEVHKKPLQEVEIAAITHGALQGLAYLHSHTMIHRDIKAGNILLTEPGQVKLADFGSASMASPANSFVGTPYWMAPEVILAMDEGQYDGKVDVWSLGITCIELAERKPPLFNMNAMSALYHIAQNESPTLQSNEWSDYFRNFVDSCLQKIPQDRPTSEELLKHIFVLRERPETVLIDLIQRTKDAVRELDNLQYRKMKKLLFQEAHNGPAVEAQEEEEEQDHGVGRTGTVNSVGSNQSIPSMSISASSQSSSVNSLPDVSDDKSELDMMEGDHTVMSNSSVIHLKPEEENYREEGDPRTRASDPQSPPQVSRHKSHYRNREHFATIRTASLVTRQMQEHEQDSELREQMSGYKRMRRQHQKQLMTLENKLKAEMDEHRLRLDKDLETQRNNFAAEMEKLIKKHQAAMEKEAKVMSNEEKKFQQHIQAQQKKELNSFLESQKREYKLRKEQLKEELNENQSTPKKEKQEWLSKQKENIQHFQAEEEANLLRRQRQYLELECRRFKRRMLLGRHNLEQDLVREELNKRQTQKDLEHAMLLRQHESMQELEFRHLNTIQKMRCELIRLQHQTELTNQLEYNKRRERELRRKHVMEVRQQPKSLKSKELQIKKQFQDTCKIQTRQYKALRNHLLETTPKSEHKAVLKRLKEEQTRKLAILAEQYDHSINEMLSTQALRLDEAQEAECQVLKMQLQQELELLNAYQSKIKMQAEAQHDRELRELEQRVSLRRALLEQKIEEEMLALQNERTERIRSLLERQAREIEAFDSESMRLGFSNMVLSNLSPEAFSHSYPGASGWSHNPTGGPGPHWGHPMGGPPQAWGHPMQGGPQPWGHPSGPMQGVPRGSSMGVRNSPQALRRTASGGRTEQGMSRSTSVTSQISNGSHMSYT", "how_it_was_run": "as §1"}, "MTOR": {"biological_target": "MTOR (Homo sapiens, UniProt P42345)", "how_it_was_run": "as §1"}, "TGFBR1": {"biological_target": "TGFBR1 (Homo sapiens, UniProt P36897)", "how_it_was_run": "as §1"}, "PIK3C2B": {"biological_target": "PIK3C2B (Homo sapiens, UniProt O00750)", "how_it_was_run": "as §1"}, "FLT3(ITD,F691L)": {"biological_target": "FLT3(ITD,F691L) (Homo sapiens, UniProt P36888, F691L/ITD)", "how_it_was_run": "as §1"}, "PLK1": {"biological_target": "PLK1 (Homo sapiens, UniProt P53350)", "how_it_was_run": "as §1"}, "PAK2": {"biological_target": "PAK2 (Homo sapiens, UniProt Q13177)", "how_it_was_run": "as §1"}},
  "data": [
    {"smiles": "[O-][S@@+](Cc1cncs1)C(c1ccccc1)c1ccccc1", "note": "[S-CE-123, (S)-5-((Benzhydrylsulfinyl)Methyl)Thiazole]", "values": [
      {"measurement": "remaining binding at 2.8 µM", "setting": "EPHA4", "result": 97, "unit": "%"},
      {"measurement": "remaining binding at 2.8 µM", "setting": "AAK1", "result": 88, "unit": "%"},
      {"measurement": "remaining binding at 2.8 µM", "setting": "PCTK2", "result": 93, "unit": "%"},
      {"measurement": "remaining binding at 2.8 µM", "setting": "EPHA1", "result": 96, "unit": "%"},
      {"measurement": "remaining binding at 2.8 µM", "setting": "ERK3", "result": 93, "unit": "%"},
      {"measurement": "remaining binding at 2.8 µM", "setting": "MEK6", "result": 89, "unit": "%"},
      {"measurement": "remaining binding at 2.8 µM", "setting": "DMPK2", "result": 88, "unit": "%"},
      {"measurement": "remaining binding at 2.8 µM", "setting": "HIPK1", "result": 90, "unit": "%"},
      {"measurement": "remaining binding at 2.8 µM", "setting": "BMPR1B", "result": 100, "unit": "%"},
      {"measurement": "remaining binding at 2.8 µM", "setting": "CDC2L1", "result": 95, "unit": "%"},
      {"measurement": "remaining binding at 2.8 µM", "setting": "FES", "result": 95, "unit": "%"},
      {"measurement": "remaining binding at 2.8 µM", "setting": "AURKA", "result": 91, "unit": "%"},
      {"measurement": "remaining binding at 2.8 µM", "setting": "[1]", "result": 66, "unit": "%"},
      {"measurement": "remaining binding at 2.8 µM", "setting": "[2]", "result": 92, "unit": "%"},
      {"measurement": "remaining binding at 2.8 µM", "setting": "ROCK1", "result": 100, "unit": "%"},
      {"measurement": "remaining binding at 2.8 µM", "setting": "EPHA6", "result": 100, "unit": "%"},
      {"measurement": "remaining binding at 2.8 µM", "setting": "MAK", "result": 94, "unit": "%"},
      {"measurement": "remaining binding at 2.8 µM", "setting": "CDK8", "result": 96, "unit": "%"},
      {"measurement": "remaining binding at 2.8 µM", "setting": "CASK", "result": 82, "unit": "%"},
      {"measurement": "remaining binding at 2.8 µM", "setting": "TAOK1", "result": 100, "unit": "%"},
      {"measurement": "remaining binding at 2.8 µM", "setting": "MTOR", "result": 100, "unit": "%"},
      {"measurement": "remaining binding at 2.8 µM", "setting": "TGFBR1", "result": 86, "unit": "%"},
      {"measurement": "remaining binding at 2.8 µM", "setting": "PIK3C2B", "result": 98, "unit": "%"},
      {"measurement": "remaining binding at 2.8 µM", "setting": "FLT3(ITD,F691L)", "result": 50, "unit": "%"},
      {"measurement": "remaining binding at 2.8 µM", "setting": "PLK1", "result": 79, "unit": "%"},
      {"measurement": "remaining binding at 2.8 µM", "setting": "PAK2", "result": 77, "unit": "%"}
    ]}
  ]
}
